The values below come from patent US8293919B2, “Antibacterial sulfone and sulfoxide substituted heterocyclic urea compounds” (Crestone, Inc., priority 2007, dated 2012).

The structures appear in SMILES notation. In brackets after ≈: the same amount, converted by molar mass.

Holding throughout (assay type): cell-based
One assay relates to S. pyogenes. Put plainly: Bactericidal activity.
The subject of assay [1] is clinically relevant resistant strains. Put plainly: MIC in clinically relevant drug-resistant strains (all species together). As to the method:
(§1) Compounds of the present invention were tested for antibacterial activity against a variety of pathogenic organisms including S. aureus, S. pneumoniae, S. pyogenes, E. faecalis, H. influenza and M. catarrhalis using a standard broth microdilution method to determine their minimum inhibitory concentrations (MICs). All compounds were tested using standard methods in accordance with CLSI guidelines (Clinical and Laboratory Standards Institute). Compounds described in Examples 1-5, 7-12, 14, 16-17, 19-30, 32-35, 37-42, 44-66, 69, 71-76, 79-84, and 87 had MIC's of 0.25-4.0 μg/mL against some strains of the major Gram-positive organisms S. aureus, S. pneumoniae, S. pyogenes, and E. faecalis.
(§2) Compounds of the present invention were not compromised by existing resistance to all drug classes tested, including β-lactams, glycopeptides, oxazolidinones, macrolides, and fluoroquinolones. In particular, the compound described in Example 9 was active against methicillin- (oxacillin-) resistant S. aureus (MRSA), vancomycin-intermediate S. aureus (VISA), linezolid-resistant S. aureus, methicillin- (oxacillin-) resistant and mupirocin resistant S. epidermidis, macrolide-resistant S. pyogenes, macrolide-, penicillin-, and levofloxacin-resistant S. pneumoniae, vancomycin-, macrolide-, and ciprofloxacin-resistant E. faecalis (VRE) and vancomycin-, macrolide-, and ciprofloxacin-resistant E. faecium.

The next assay has as its system E. faecium. Put plainly: Bactericidal activity.
The subject of the next assay is S. epidermidis. Put plainly: Bactericidal activity.
For assay [2], the system named is macrolide-, penicillin-, and levofloxacin-resistant S. pneumoniae. Put plainly: Antibacterial activity against drug-resistant strains. How it is done: as §1, §2
Assay [3] has as its system vancomycin-, macrolide-, and ciprofloxacin-resistant E. faecalis (VRE). The description is as above. As to the method: as §1, §2
In assay [4] the test system is resistant S. aureus (MRSA, VISA, linezolid-resistant). Described as above. How it is done:
as §1, §2

The test system of assay [5] is macrolide-resistant S. pyogenes. The assay is described as above. As to the method:
as §1, §2

Assay [6] relates to vancomycin-, macrolide-, and ciprofloxacin-resistant E. faecium. Described as above. How it is done:
as §1, §2

For assay [7], the system named is methicillin- (oxacillin-) resistant and mupirocin resistant S. epidermidis. Described as above. How it is done:
as §1, §2

The test system of the next assay is S. pneumoniae. Put plainly: Bactericidal activity.
The test system of a further assay is S. aureus. Put plainly: Bactericidal activity.
For the next assay, the system named is E. faecalis. Put plainly: Bactericidal activity.

On to `CCCS(=O)(=O)Cc1csc(NC(=O)NCc2ccc(Cl)c(Cl)c2)n1` [Example 9, 1-(3,4-dichlorobenzyl)-3-(4-(propylsulfonylmethyl)thiazol-2-yl)urea], for which the bactericidal effect result with S. pyogenes, with E. faecium, in the assay on S. epidermidis, in the assay with S. pneumoniae, in the assay on S. aureus and with E. faecalis was “bactericidal” in each case. Moreover, the MIC in assay [1] (clinically relevant resistant strains) lay within 0.5 to 4 µg/mL (≈ 1.18 to 9.47 µM). Besides, the “MICs in sensitive versus drug resistant strains” value in [1] (sensitive versus drug resistant strains) was “comparable”. The “activity against resistant strain” value in [2], in [3], in assay [4] (linezolid-resistant S. aureus), in assay [4] (methicillin- (oxacillin-) resistant S. aureus (MRSA)), in [4] (vancomycin-intermediate S. aureus (VISA)) and in assay [5] was “active” each time. Besides, the “activity against resistant strain” value in assay [6] and in assay [7] was “active” in each case.

As usually defined, the MIC is the lowest concentration found to suppress growth. High values mean a need for much substance, low ones inhibition by little substance.
